Reference: patent US9096581B2, “Fluoroethyl thiamine or salts thereof and application thereof in preparation of anticoccidial drugs” (GUANGZHOU ORIGMOL FEED-ADDITIVE CO., LTD, priority 2012, dated 2015)
Where a name gives a salt, the structure may show the parent alone.

Test system: Eimeria tenella GD strains
Assay: Anticoccidial dose research in chickens infected with Eimeria tenella GD (Embodiment 2)
Format: in vivo
Design: oocyst value: scale not given here
Conditions: for number of oocysts in cecum / average weight gain: 7th day; for lesion value: cecum, 7 days after infecting, scale 0-40; for survival rate / average weight gain / bloody feces scoring: chickens; for bloody feces scoring: 5 days after infecting, score 0-4; for oocyst value: converted per Table 2; for relative weight gain rate: vs non-infected non-drug control
Description: 1-day-old Lingnan yellow chickens, purchased from Poultry Research Unit, Bureau of Animal Husbandry, Guangdong Academy of Agricultural Sciences, bred under coccidium-free environment, and subjected to experiment after no coccidium oocyst is found in feces through microscopic examination when the chickens are 14 days old. Perfect compound feed for chickens: prepared by Huizhou Yuantai Feed Co. Ltd., and containing no antibacterial or anticoccidial additive.
Eimeria tenella GD strains, having no resistance to various anticoccidial drugs. Breeding and amplifying in chickens before the experiment, collecting fresh oocysts, sporulating, and preserving at 4° C. for later use.
Weighing the 14-day-old experiment chickens one by one, rejecting emaciated or overweighted chickens, selecting healthy chickens of which the individual body weight difference is within 20 g, and dividing to 9 groups with 20 chickens in each group. Groups 1 and 2 are respectively a non-drug-applied and non-coccidium-killed control group and a coccidium-infected and non-drug-applied control group, and Groups 3-9 are experiment groups applied with different doses of the fluoroethyl thiamine hydrochloride according to Table 1. Adding different doses of drugs to feeds and mixing uniformly on the day of experiment grouping, enabling the chickens to freely take in the feeds, and feeding the chickens until the experiment ends.
Except the non-coccidium-infected and non-drug-applied control group (Group 1), giving each experiment chicken in each experiment group with 2.5×10^5 eimeria tenella sporulated oocysts via the crop on the next day of the grouping day. During experiment, observing and recording the spirit, appetite, bloody feces situation, death count and the like of the chickens every day. Performing bloody feces scoring on the chickens in each group 5 days after infecting. On the 7th day, respectively weighing all the chickens in each group, then autopsying them, observing cecum lesions and counting the oocysts in the cecum.
2.3.1 Bloody feces scoring: according to the method in the references: 0 point, no bloody feces, 1 point, less than 25% of bloody feces; 2 points, 25%-50% of bloody feces; 3 points, 50%-75% of bloody feces; 4 points, more than 75% of bloody feces.
2.3.2 Weight gain: respectively weighing each chicken when the experiment starts and ends, and calculating the average weight gain and relative weight gain rate. The relative weight gain rate=(the average weight gain in the experiment groups/the average weight gain in the non-infected and non-drug-applied control group)×100%.
2.3.3 Survival rate: recording the number of dead chickens of each group, autopsying to determine the death cause, and calculating the survival rate. The survival rate=(the total number of the chickens in the experiment groups−the number of the chickens dying of coccidium infection during the experiment)/the total number of the chickens in the experiment groups×100%.
2.3.4 Lesion standard: killing the chickens 7 days after infecting, performing cecum lesion scoring according to the lesion scoring of Johnson and Reid (1970), and converting lesion points to lesion values.
lesion scoring (taking the serious side if the two sides of the cecum are inconsistent in lesion): 0 point, no macroscopic lesion; 1 point, a small amount of scattered petechiae on the cecum wall, no incrassation on the cecum wall, normal contents; 2 points, a large amount of lesion, obviously bloody contents in the cecum, slight incrassation on the cecum wall, normal contents; 3 points, a large a mount of blood or intestinal core (blood clot or gray caseous banana-shaped lumps) in the cecum, obvious incrassation on the cecum wall, a small amount of feces in the cecum; 4 points, cecum swelling caused by filling of a large amount of blood or intestinal core with or without feces in the intestinal core. Recording the dead chicken lesion as 4 points as well. […]

CCc1ncc(C[n+]2csc(CCF)c2C)c(N)n1 [fluoroethyl thiamine hydrochloride, 3-[(4-amino-2-ethyl-5-pyrimidyl)-methylene]-5-(2-fluoroethyl)-4-methyl thiazole chloride hydrochloride]
anticoccidial index (ACI) (10 ppm in feed): 136.7
number of oocysts in cecum (10 ppm in feed): 2.965 ×10^6/chicken
lesion value (10 ppm in feed): 24.5
survival rate (10 ppm in feed): 90%
average weight gain (10 ppm in feed): 135.7 g/chicken
bloody feces scoring (10 ppm in feed): 2
oocyst value (10 ppm in feed): 10
relative weight gain rate (10 ppm in feed): 81.2%
anticoccidial index (ACI) (25 ppm in feed): 144.6
number of oocysts in cecum (25 ppm in feed): 2.325 ×10^6/chicken
lesion value (25 ppm in feed): 18.8
survival rate (25 ppm in feed): 90%
average weight gain (25 ppm in feed): 139.5 g/chicken
bloody feces scoring (25 ppm in feed): 2
oocyst value (25 ppm in feed): 10
relative weight gain rate (25 ppm in feed): 83.4%
anticoccidial index (ACI) (50 ppm in feed): 165.5
drug efficiency level judged from the anticoccidial index (50 ppm in feed): intermediate-efficiency anticoccidial drugs (intermediate-efficiency anticoccidial drugs if 160≦ACI<180)
number of oocysts in cecum (50 ppm in feed): 3.65 ×10^6/chicken
lesion value (50 ppm in feed): 11.2
survival rate (50 ppm in feed): 100%
average weight gain (50 ppm in feed): 144.9 g/chicken
bloody feces scoring (50 ppm in feed): 1
oocyst value (50 ppm in feed): 10
relative weight gain rate (50 ppm in feed): 86.7%
anticoccidial index (ACI) (75 ppm in feed): 176.4
drug efficiency level judged from the anticoccidial index (75 ppm in feed): intermediate-efficiency anticoccidial drugs (intermediate-efficiency anticoccidial drugs if 160≦ACI<180)
number of oocysts in cecum (75 ppm in feed): 2.15 ×10^6/chicken
lesion value (75 ppm in feed): 8.5
survival rate (75 ppm in feed): 100%
average weight gain (75 ppm in feed): 158.7 g/chicken
bloody feces scoring (75 ppm in feed): 0
oocyst value (75 ppm in feed): 10
relative weight gain rate (75 ppm in feed): 94.9%
anticoccidial index (ACI) (100 ppm in feed): 195.9
drug efficiency level judged from the anticoccidial index (100 ppm in feed): high-efficiency anticoccidial drugs (high-efficiency anticoccidial drugs if ACI≧180)
number of oocysts in cecum (100 ppm in feed): 0.47 ×10^6/chicken
lesion value (100 ppm in feed): 0
survival rate (100 ppm in feed): 100%
average weight gain (100 ppm in feed): 162.0 g/chicken
bloody feces scoring (100 ppm in feed): 0
oocyst value (100 ppm in feed): 1
relative weight gain rate (100 ppm in feed): 96.9%
anticoccidial index (ACI) (150 ppm in feed): 201.4
drug efficiency level judged from the anticoccidial index (150 ppm in feed): high-efficiency anticoccidial drugs (high-efficiency anticoccidial drugs if ACI≧180)
number of oocysts in cecum (150 ppm in feed): 0.16 ×10^6/chicken
lesion value (150 ppm in feed): 0
survival rate (150 ppm in feed): 100%
average weight gain (150 ppm in feed): 171.2 g/chicken
bloody feces scoring (150 ppm in feed): 0
oocyst value (150 ppm in feed): 1
relative weight gain rate (150 ppm in feed): 102.4%
anticoccidial index (ACI) (200 ppm in feed): 200.8
drug efficiency level judged from the anticoccidial index (200 ppm in feed): high-efficiency anticoccidial drugs (high-efficiency anticoccidial drugs if ACI≧180)
number of oocysts in cecum (200 ppm in feed): 0 ×10^6/chicken
lesion value (200 ppm in feed): 0
survival rate (200 ppm in feed): 100%
average weight gain (200 ppm in feed): 168.5 g/chicken
bloody feces scoring (200 ppm in feed): 0
oocyst value (200 ppm in feed): 0
relative weight gain rate (200 ppm in feed): 100.8%
